Reference: patent US20260085066A1, “LEUCINE RICH REPEAT KINASE 2 (LRRK2) DEGRADING COMPOUNDS AND ASSOCIATED METHODS OF USE” (Arvinas Operations, Inc., priority 2022, published 2026)

Target: T1, WT LRRK2 (Homo sapiens, UniProt Q5S007)
T1 construct: endogenous in cells; host or cells: HEK293 cells with HiBit knocked into the endogenous LRRK2 gene, stably expressing firefly luciferase
Experiment: LRRK2 degradation HiBit assay in HEK293 cells (Nano-Glo Dual-Luciferase)
Assay type: cell-based
Conditions: HiBit-tagged LRRK2 in HEK293 cells, 24 hours compound treatment

T1 sequence (Q5S007 whole entry): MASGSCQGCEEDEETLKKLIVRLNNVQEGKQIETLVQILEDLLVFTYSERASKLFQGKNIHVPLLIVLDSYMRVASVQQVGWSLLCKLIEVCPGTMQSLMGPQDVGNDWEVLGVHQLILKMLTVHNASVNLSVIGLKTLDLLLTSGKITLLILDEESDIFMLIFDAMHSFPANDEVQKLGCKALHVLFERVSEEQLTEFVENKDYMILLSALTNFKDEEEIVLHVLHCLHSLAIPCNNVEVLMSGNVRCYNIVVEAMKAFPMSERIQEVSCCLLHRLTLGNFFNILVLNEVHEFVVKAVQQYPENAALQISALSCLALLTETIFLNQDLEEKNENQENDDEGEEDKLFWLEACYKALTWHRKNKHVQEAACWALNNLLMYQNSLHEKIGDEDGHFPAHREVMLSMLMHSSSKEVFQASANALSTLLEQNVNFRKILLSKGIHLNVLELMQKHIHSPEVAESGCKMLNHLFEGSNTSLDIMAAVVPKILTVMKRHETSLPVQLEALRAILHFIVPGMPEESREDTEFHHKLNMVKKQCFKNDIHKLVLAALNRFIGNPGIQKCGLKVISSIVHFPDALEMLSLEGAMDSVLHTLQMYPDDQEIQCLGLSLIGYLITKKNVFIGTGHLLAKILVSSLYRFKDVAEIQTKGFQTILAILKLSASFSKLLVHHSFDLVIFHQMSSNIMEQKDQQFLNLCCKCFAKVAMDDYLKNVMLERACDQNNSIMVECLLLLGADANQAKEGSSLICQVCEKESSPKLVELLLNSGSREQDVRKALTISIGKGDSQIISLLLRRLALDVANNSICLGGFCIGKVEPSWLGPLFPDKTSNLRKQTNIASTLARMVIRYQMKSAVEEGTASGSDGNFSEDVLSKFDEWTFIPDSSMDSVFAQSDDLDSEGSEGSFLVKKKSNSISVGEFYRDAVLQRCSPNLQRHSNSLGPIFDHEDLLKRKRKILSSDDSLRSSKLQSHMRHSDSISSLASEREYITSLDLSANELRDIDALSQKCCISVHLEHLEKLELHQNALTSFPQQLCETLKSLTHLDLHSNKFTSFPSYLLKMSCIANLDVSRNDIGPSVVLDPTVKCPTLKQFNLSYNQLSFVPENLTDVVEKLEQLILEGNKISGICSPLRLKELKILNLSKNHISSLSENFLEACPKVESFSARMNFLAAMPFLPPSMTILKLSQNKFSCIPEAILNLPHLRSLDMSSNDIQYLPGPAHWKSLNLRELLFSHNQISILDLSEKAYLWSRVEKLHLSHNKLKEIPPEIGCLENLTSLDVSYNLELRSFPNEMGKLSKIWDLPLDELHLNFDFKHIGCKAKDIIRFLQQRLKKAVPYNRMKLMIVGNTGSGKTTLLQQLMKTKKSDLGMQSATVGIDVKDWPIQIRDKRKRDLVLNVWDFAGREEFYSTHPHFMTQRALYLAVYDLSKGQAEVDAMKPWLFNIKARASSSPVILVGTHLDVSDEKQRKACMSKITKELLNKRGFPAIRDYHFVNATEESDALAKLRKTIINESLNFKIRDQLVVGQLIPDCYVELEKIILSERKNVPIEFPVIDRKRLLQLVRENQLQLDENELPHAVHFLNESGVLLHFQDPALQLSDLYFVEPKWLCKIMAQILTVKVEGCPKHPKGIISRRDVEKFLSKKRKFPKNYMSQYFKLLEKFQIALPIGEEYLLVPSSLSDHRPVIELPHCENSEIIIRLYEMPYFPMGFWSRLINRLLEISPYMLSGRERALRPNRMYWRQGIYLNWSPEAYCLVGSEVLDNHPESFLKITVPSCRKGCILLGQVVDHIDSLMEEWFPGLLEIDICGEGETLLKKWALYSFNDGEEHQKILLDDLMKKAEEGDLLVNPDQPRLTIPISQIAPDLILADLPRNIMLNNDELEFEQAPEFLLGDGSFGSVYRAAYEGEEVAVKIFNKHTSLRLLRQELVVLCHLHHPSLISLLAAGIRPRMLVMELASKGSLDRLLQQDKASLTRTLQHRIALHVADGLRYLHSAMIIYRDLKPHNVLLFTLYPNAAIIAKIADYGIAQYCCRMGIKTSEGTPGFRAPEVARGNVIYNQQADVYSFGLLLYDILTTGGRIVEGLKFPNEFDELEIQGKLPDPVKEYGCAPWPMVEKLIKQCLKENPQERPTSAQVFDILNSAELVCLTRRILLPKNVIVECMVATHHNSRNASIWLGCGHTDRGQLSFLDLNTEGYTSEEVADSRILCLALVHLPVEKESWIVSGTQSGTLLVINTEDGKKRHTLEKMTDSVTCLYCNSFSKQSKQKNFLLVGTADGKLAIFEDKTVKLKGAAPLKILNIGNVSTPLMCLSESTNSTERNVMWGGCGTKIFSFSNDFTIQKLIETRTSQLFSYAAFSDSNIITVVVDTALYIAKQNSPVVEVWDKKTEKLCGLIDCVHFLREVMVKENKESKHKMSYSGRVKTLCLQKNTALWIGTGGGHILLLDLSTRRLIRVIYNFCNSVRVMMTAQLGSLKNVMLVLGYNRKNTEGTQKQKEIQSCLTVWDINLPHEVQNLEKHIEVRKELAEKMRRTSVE

SMILES | Dmax [%]
CC1(Oc2ccc3[nH]nc(-c4cc(N5CCN(C[C@@H]6CCN(CC7CCN(c8ccc9c(c8F)CN(C8CCC(=O)NC8=O)C9=O)CC7)C[C@@H]6F)CC5)ncn4)c3c2)CC1 (some centres unmarked) [Example 9] | 50 to 70
CC1(Oc2ccc3[nH]nc(-c4cc(N5CCN(CCC6(F)CCN(CC7CCN(c8ccc9c(c8F)CN(C8CCC(=O)NC8=O)C9=O)CC7)CC6)CC5)ncn4)c3c2)CC1 (centres unmarked) [Example 6, 3-[4-fluoro-5-[4-[[4-fluoro-4-[2-[4-[6-[5-(1-methylcyclopropoxy)-1H-indazol-3-yl]pyrimidin-4-yl]piperazin-1-yl]ethyl]-1-piperidyl]methyl]-1-piperidyl]-1-oxo-isoindolin-2-yl]piperidine-2,6-dione] | 50 to 70
Cc1cc(N2CCC(CN3CCN(CC4CCN(c5cc(-c6n[nH]c7ccc(OC8(C)CC8)cc67)ncn5)CC4)C(C)(C)C3)CC2)c(F)c2c1C(=O)N(C1CCC(=O)NC1=O)C2 (centres unmarked) [Example 19] | 50 to 70
CC1(Oc2ccc3[nH]nc(-c4cc(N5CCO[C@@H](CN6CCN(CC7CCN(c8ccc9c(c8F)CN(C8CCC(=O)NC8=O)C9=O)CC7)CC6(C)C)C5)cnn4)c3c2)CC1 (some centres unmarked) [Example 16] | 50 to 70
CC1(Oc2ccc3[nH]nc(-c4cc(N5CCN(C[C@@H]6CN(CC7CCN(c8ccc9c(c8F)CN(C8CCC(=O)NC8=O)C9=O)CC7)CCO6)CC5)ncn4)c3c2)CC1 (some centres unmarked) [Example 13] | 50 to 70
CC1(Cc2ccc3[nH]nc(-c4cc(N5CCC(CN6CCN(CC7CCN(c8ccc9c(c8F)CN(C8CCC(=O)NC8=O)C9=O)CC7)CC6)CC5)ncn4)c3c2)CC1 (centres unmarked) [Example 21] | 50 to 70
CC1(Oc2ccc3[nH]nc(-c4cc(N5CCC(CN6CC[C@@H](CN7CCN(c8ccc9c(c8F)CN(C8CCC(=O)NC8=O)C9=O)CC7)[C@@H](F)C6)CC5)ncn4)c3c2)CC1 (some centres unmarked) [Example 7] | 50 to 70
CC1(Oc2ccc3[nH]nc(-c4cc(N5CCN(C[C@H]6CC[C@H](OC7CCN(c8ccc9c(c8)CN(C8CCC(=O)NC8=O)C9=O)CC7)CC6)CC5)ncn4)c3c2)CC1 (some centres unmarked) [Example 14, 3-[5-[4-[4-[[4-[6-[5-(1-methylcyclopropoxy)-1H-indazol-3-yl]pyrimidin-4-yl]piperazin-1-yl]methyl]cyclohexoxy]-1-piperidyl]-1-oxo-isoindolin-2-yl]piperidine-2,6-dione] | 50 to 70
CC1(Oc2ccc3[nH]nc(-c4cc(N5CCC(C[C@H]6CC[C@@H](OC7CCN(c8ccc9c(c8F)CN(C8CCC(=O)NC8=O)C9=O)CC7)CC6)CC5)ncn4)c3c2)CC1 (some centres unmarked) [Example 22, 3-[4-fluoro-5-[4-[4-[[1-[6-[5-(1-methylcyclopropoxy)-1H-indazol-3-yl]pyrimidin-4-yl]-4-piperidyl]methyl]cyclohexoxy]-1-piperidyl]-1-oxo-isoindolin-2-yl]piperidine-2,6-dione] | ≥ 70
CC1(Cc2ccc3[nH]nc(-c4cc(N5CCC(CN6CCN(CC7CCN(c8ccc9c(c8F)CN(C8CCC(=O)NC8=O)C9=O)CC7)C(C)(C)C6)CC5)ncn4)c3c2)CC1 (centres unmarked) [Example 26] | 50 to 70
Cc1cc(N2CCC(O[C@H]3CC[C@H](CN4CCN(c5cc(-c6n[nH]c7ccc(OC8(C)CC8)cc67)ncn5)CC4)CC3)CC2)c(F)c2c1C(=O)N(C1CCC(=O)NC1=O)C2 (some centres unmarked) [Example 18, 3-(4-fluoro-7-methyl-5-(4-(((1r,4r)-4-((4-(6-(5-(1-methylcyclopropoxy)-1H-indazol-3-yl)pyrimidin-4-yl)piperazin-1-yl)methyl)cyclohexyl)oxy)piperidin-1-yl)-1-oxoisoindolin-2-yl)piperidine-2,6-dione] | ≥ 70
COc1c(N2CCC(O[C@H]3C[C@H](N4CCC5(CC4)CN(c4cc(-c6[nH]nc7ccc(OC8(C)CC8)cc67)ncn4)C5)C3)CC2)ccc2c1CN(C1CCC(=O)NC1=O)C2=O (some centres unmarked) [Example 4, 3-[4-methoxy-5-[4-[3-[2-[6-[5-(1-methylcyclopropoxy)-2H-indazol-3-yl]pyrimidin-4-yl]-2,7-diazaspiro[3.5]nonan-7-yl]cyclobutoxy]-1-piperidyl]-1-oxo-isoindolin-2-yl]piperidine-2,6-dione] | 50 to 70
COc1c(N2CCC(O[C@H]3CC[C@H](CN4CCN(c5cc(-c6[nH]nc7ccc(CC8(C)CC8)cc67)ncn5)CC4)CC3)CC2)ccc2c1CN(C1CCC(=O)NC1=O)C2=O (some centres unmarked) [Example 28] | 50 to 70
CC1(Oc2ccc3[nH]nc(-c4cc(N5CCN(CCN6CCN(CC7CCN(c8ccc9c(c8F)CN(C8CCC(=O)NC8=O)C9=O)CC7)CC6)CC5)ncn4)c3c2)CC1 (centres unmarked) [Example 8] | 50 to 70
CC1(Cc2ccc3[nH]nc(-c4cc(N5CCC(CN6CCN(CC7CCN(c8ccc9c(c8F)CN(C8CCC(=O)NC8=O)C9=O)CC7)CC6(C)C)CC5)ncn4)c3c2)CC1 (centres unmarked) [Example 25] | < 50
Cc1cc(N2CCC(O[C@H]3CC[C@@H](CN4CCN(c5cc(-c6n[nH]c7ccc(OC8(C)CC8)cc67)ncn5)CC4)CC3)CC2)c(F)c2c1C(=O)N(C1CCC(=O)NC1=O)C2 (some centres unmarked) [Example 20, 3-(4-fluoro-7-methyl-5-(4-(((1s,4s)-4-((4-(6-(5-(1-methylcyclopropoxy)-1H-indazol-3-yl)pyrimidin-4-yl)piperazin-1-yl)methyl)cyclohexyl)oxy)piperidin-1-yl)-1-oxoisoindolin-2-yl)piperidine-2,6-dione] | < 50
CC1(Oc2ccc3[nH]nc(-c4cc(N5CCN(C[C@H]6CC[C@H](CN7CCN(c8ccc9c(c8F)CN(C8CCC(=O)NC8=O)C9=O)CC7)OC6)CC5)ncn4)c3c2)CC1 (some centres unmarked) [Example 10] | 50 to 70
CC1(Oc2ccc3[nH]nc(-c4cc(N5CCO[C@H](CN6CCN(CC7CCN(c8ccc9c(c8F)CN(C8CCC(=O)NC8=O)C9=O)CC7)CC6)C5)ncn4)c3c2)CC1 (stereo partly drawn) [Example 1, 3-[4-fluoro-5-[4-[[4-[[(2R)-4-[6-[5-(1-methylcyclopropoxy)-1H-indazol-3-yl]pyrimidin-4-yl]morpholin-2-yl]methyl]piperazin-1-yl]methyl]-1-piperidyl]-1-oxo-isoindolin-2-yl]piperidine-2,6-dione] | 50 to 70
CC1(Oc2ccc3[nH]nc(-c4cc(N5CCN(C[C@H]6CN(CCC7CCN(c8ccc9c(c8F)CN(C8CCC(=O)NC8=O)C9=O)CC7)CCO6)CC5)ncn4)c3c2)CC1 (some centres unmarked) [Example 17] | 50 to 70
CC1(Oc2ccc3[nH]nc(-c4cc(N5CCN(CC(F)(F)C6CCN(CC7CCN(c8ccc9c(c8F)CN(C8CCC(=O)NC8=O)C9=O)CC7)CC6)CC5)ncn4)c3c2)CC1 (centres unmarked) [Example 15] | 50 to 70
CC1(Oc2ccc3[nH]nc(-c4cc(N5CCC(O[C@H]6CC[C@@H](CC7CCN(c8ccc9c(c8F)CN(C8CCC(=O)NC8=O)C9=O)CC7)CC6)CC5)ncn4)c3c2)CC1 (some centres unmarked) [Example 27] | 50 to 70
CC1(Oc2ccc3[nH]nc(-c4cc(N5CCC(C[C@H]6CC[C@H](OC7CCN(c8ccc9c(c8F)CN(C8CCC(=O)NC8=O)C9=O)CC7)CC6)CC5)ncn4)c3c2)CC1 (some centres unmarked) [Example 23] | 50 to 70
CC1(Cc2ccc3[nH]nc(-c4cc(N5CCC(OC6CCN(CC7CCN(c8ccc9c(c8F)CN(C8CCC(=O)NC8=O)C9=O)CC7)CC6)CC5)ncn4)c3c2)CC1 (centres unmarked) [Example 24] | < 50
CC1(Oc2ccc3[nH]nc(-c4cc(N5CCN(C[C@@H]6CN(CCC7CCN(c8ccc9c(c8F)CN(C8CCC(=O)NC8=O)C9=O)CC7)CCO6)CC5)ncn4)c3c2)CC1 (some centres unmarked) [Example 5] | 50 to 70
CC1(Oc2ccc3[nH]nc(-c4cc(N5CCC(O[C@@H]6CCN(CC7CCN(c8ccc9c(c8F)CN(C8CCC(=O)NC8=O)C9=O)CC7)C(C)(C)C6)CC5)ncn4)c3c2)CC1 (some centres unmarked) [Example 11] | 50 to 70
CC1(Oc2ccc3[nH]nc(-c4cc(N5CCC(O[C@H]6CC[C@H](CC7CCN(c8ccc9c(c8F)CN(C8CCC(=O)NC8=O)C9=O)CC7)CC6)CC5)ncn4)c3c2)CC1 (some centres unmarked) [Example 29] | ≥ 70
CC1(Oc2ccc3[nH]nc(-c4cc(N5CCO[C@@H](CN6CCN(CC7CCN(c8ccc9c(c8F)CN(C8CCC(=O)NC8=O)C9=O)CC7)CC6)C5)ncn4)c3c2)CC1 (some centres unmarked) [Example 2] | 50 to 70
CC1(Oc2ccc3[nH]nc(-c4cc(N5CCN(C[C@H]6CN(CC7CCN(c8ccc9c(c8F)CN(C8CCC(=O)NC8=O)C9=O)CC7)CCO6)CC5)ncn4)c3c2)CC1 (stereo partly drawn) [Example 12, 3-[4-fluoro-5-[4-[[(2S)-2-[[4-[6-[5-(1-methylcyclopropoxy)-1H-indazol-3-yl]pyrimidin-4-yl]piperazin-1-yl]methyl]morpholin-4-yl]methyl]-1-piperidyl]-1-oxo-isoindolin-2-yl]piperidine-2,6-dione] | 50 to 70
CC1(Oc2ccc3[nH]nc(-c4cc(N5CCO[C@H](CN6CCN(CC7CCN(c8ccc9c(c8F)CN(C8CCC(=O)NC8=O)C9=O)CC7)CC6(C)C)C5)ncn4)c3c2)CC1 (some centres unmarked) [Example 3] | 50 to 70
